Test results as given in patent US11542295B2, “Use of 20-hydroxyecdysone and the derivatives thereof in the treatment of myopathies” (BIOPHYTIS, priority 2017, dated 2023).

Key:
[1] = test system: tibialis anterior muscle of C57BL10 mdx mice; experiment: Maximum absolute isometric strength of the tibialis anterior muscle (in situ); type: in vivo, mouse; settings: 50 mg/kg*day, two months of treatment
Protocol: Twelve-week-old […] gene pool (wild mice referred to as “C57” in the figures) and […] mdx (mouse model of Duchenne muscular dystrophy, referred to as “mdx” in the figures) male mice, produced at Charles Rivers, were used. Two groups of mdx were chronically exposed per os either to BIO101 (number of mice n=9) or to BIO103 (number of mice n=9) at a dose of 50 mg/kg*day. A group of C57 mice (number of mice n=5) and a group of mdx mice (number of mice n=15) received the vehicle, i.e. no treatment. The animals of all of the groups were tested for their functional capacity (exertion tolerance test) after two months of treatment. The exertion tolerance test consists of measuring the maximum distance travelled (in-toto activity; FIGS. 1A and 1B). Furthermore, measurements of the maximum absolute isometric strength of the tibialis anterior muscle (in-situ activity; FIGS. 2A and 2B) were made after two months of treatment. The two-month oral treatment consists of force-feeding for five days a week and in drinking water two days a week. An assessment of in-situ contractility of the tibialis anterior muscle is carried out at the end of the protocol, i.e. after two months of treatment. […] The strength is measured during contractions in response to electrical stimulation (frequency of 75-150 Hz, duration of 500 ms). […] The maximum absolute isometric tetanic strength is measured.

[2] = test system: C57BL10 mdx mice (mouse model of Duchenne muscular dystrophy); experiment: Exertion tolerance test (forced motorised treadmill, maximum distance travelled); type: in vivo; settings: 50 mg/kg*day per os, two months of treatment
Protocol: Twelve-week-old […] gene pool (wild mice referred to as “C57” in the figures) and […] mdx (mouse model of Duchenne muscular dystrophy, referred to as “mdx” in the figures) male mice, produced at Charles Rivers, were used. Two groups of mdx were chronically exposed per os either to BIO101 (number of mice n=9) or to BIO103 (number of mice n=9) at a dose of 50 mg/kg*day. A group of C57 mice (number of mice n=5) and a group of mdx mice (number of mice n=15) received the vehicle, i.e. no treatment. The animals of all of the groups were tested for their functional capacity (exertion tolerance test) after two months of treatment. The exertion tolerance test consists of measuring the maximum distance travelled (in-toto activity; FIGS. 1A and 1B). Furthermore, measurements of the maximum absolute isometric strength of the tibialis anterior muscle (in-situ activity; FIGS. 2A and 2B) were made after two months of treatment. The two-month oral treatment consists of force-feeding for five days a week and in drinking water two days a week. The exertion tolerance test is a forced motored treadmill exercise. It is a non-invasive method for assessing in-toto skeletal function. It is gold standard method in the field (Ferry et al. 1992, 1993; Hadj-Said et al. 2012). The acclimatisation period of the animals is at least 48 hours prior to the session during which the maximum running distance is measured. During the test, the mouse is placed in a running corridor on a motorised treadmill which enables a exercise controlled by the tester in the intensity and duration thereof. The treadmill ends with a horizontal grid which administers an electric shock (0.4 mA) if the animal is in contact for more than one second with the grid. The running session starts with a 2-minute warm-up period during which the speed is increased from 0 to 20 cm/s. Subsequently, the running speed is increased by 5 cm/s every 10 minutes up to the limit of the peak capacities of the mouse. When it is subjected to 5 shocks in less than 10 seconds, the test is stopped. The distance travelled is noted.

[3] = test system: tibialis anterior muscle of C57BL10 mdx mice; experiment: Histological study of tibialis anterior muscle stained with haematoxylin eosin (lesion profiles); type: in vivo, mouse; settings: 50 mg/kg*day, two months, HE staining
Protocol: Twelve-week-old C57BL10 gene pool (wild mice referred to as “C57” in the figures) and C57BL10 mdx (mouse model of Duchenne muscular dystrophy, referred to as “mdx” in the figures) male mice, produced at Charles Rivers, were used. Two groups of mdx were chronically exposed per os either to BIO101 (number of mice n=9) or to BIO103 (number of mice n=9) at a dose of 50 mg/kg*day. A group of C57 mice (number of mice n=5) and a group of mdx mice (number of mice n=15) received the vehicle, i.e. no treatment. The animals of all of the groups were tested for their functional capacity (exertion tolerance test) after two months of treatment. The exertion tolerance test consists of measuring the maximum distance travelled (in-toto activity; FIGS. 1A and 1B). Furthermore, measurements of the maximum absolute isometric strength of the tibialis anterior muscle (in-situ activity; FIGS. 2A and 2B) were made after two months of treatment.
An assessment of muscle fibrosis by histological study is carried out on the tibialis anterior muscle (abbreviated as TA). Histological sections (7 μm) are produced and stained either with haematoxylin eosin (HE) or with Sirius Red (SR).
An anatomopathological study of the sections of tibialis anterior muscle stained with HE makes it possible to assess the degree of muscle fibre involvement. Representative images of tibialis anterior muscle sections stained with HE obtained from C57 animals (FIG. 4A), mdx animals (FIG. 4B), mdx animals treated with BIO101 (FIG. 4C) and mdx animals treated with BIO103 (FIG. 4D) are shown. The scale bars correspond to 200 μm. The TA muscles of C57 mice show no muscle lesions (FIG. 4A). The TA muscles of untreated mdx mice show a wide diversity of lesion profiles: moderate anisocytosis with numerous necrotic fibres. […] The A sign indicates the inflammatory foci with which fibrosis is associated. […] Indeed, 67% (6 out of 9 TA muscles) of the muscles treated with BIO103 can be classified in this category.

Compound | increase in the maximum absolute isometric strength of the tibialis anterior muscle compared to mdx animals receiving the vehicle [1] | improvement of overall physical performances (in-toto activity) [2] [fold] | improvement of the distance travelled compared to untreated mdx animals (vehicle) [2] | TA muscles with minor lesion profile [3] [%] | TA muscles with pronounced lesion profile (anisocytosis, dispersed necrotic fibres and variable inflammation) [3] [%] | TA muscles with pronounced lesion profile tending towards atrophy [3] [%] | TA muscles with pronounced lesion profile with a somewhat necrotic tendency [3] [%] | TA muscles with severe lesion profile (large acute necrotic plaques with no regeneration) [3] [%]
CC(C)(O)CC[C@@H](O)[C@](C)(O)[C@H]1CC[C@@]2(O)C3=CC(=O)[C@@H]4C[C@@H](O)[C@@H](O)C[C@]4(C)[C@H]3CC[C@]12C [BIO101, 20-hydroxyecdysone] | +15.3% | 2.4 | +136% | 37.5 | 62.5 |  |  | 
CCSCC(=O)[C@H]1CC[C@@]2(O)C3=CC(=O)[C@@H]4C[C@@H](O)[C@@H](O)C[C@]4(C)C3CC[C@]12C (stereo partly drawn) [BIO103, (2S,3R,5R,10R,13R,14S,17S)-17-(2-ethylsulfanylacetyl)-2,3,14-trihydroxy-10,13-dimethyl-2,3,4,5,9,11,12,15,16,17-decahydro-1H-cyclopenta[a]phenanthren-6-one] | +22.5% | 1.7 | +67% | 67 |  | 11 | 11 | 11
